Assays:
[1] = tested on: staphylococcal infected rabbits; assay: Rabbit model of aortic valve endocarditis; assay type: in vivo
Excerpt: The simultaneous treatment of staphylococcal infection with suppression of resistant strain formation is an exciting and widely useful invention nowhere predicted in the art. This invention offers the possibility of treating staphylococcal infections while suppressing the generation of strains resistant to any or all active agents administered.

[2] = tested on: strains 27619, Col, 27227 and VA348; assay: Checkerboard susceptibility testing of lysostaphin and oxacillin; assay type: cell-based; details: oxacillin in concentrations up to 1 μg/ml; all strains tested
Protocol: Checkerboard susceptibility testing was conducted to determine whether simultaneous administration of lysostaphin and oxacillin (a β-lactam) would be effective in suppressing the development of resistance. Oxacillin concentrations varied between 0.0156 μg/ml and 1 μg/ml. Lysostaphin concentrations varied between 0.00048 and 0.9 μg/ml. Four strains were tested for evidence of synergy between lysostaphin and oxacillin; 27619, Col, 27227 and VA348.

[3] = lysostaphin 1 mg/kg bid (low dose), alone or together with nafcillin

lysostaphin
Bacterial counts in kidneys [1, 3]: high counts | Bacterial counts in vegetations [1, 3]: high counts | Recovery of resistant colonies/strains [1, 3]: recovery of a number of resistant colonies | Minimum dose for sterilization ([1]; lysostaphin alone): 5 mg/kg tid | MIC of lysostaphin in the presence of oxacillin [2]: unchanged

Reference: US8198231B2, “Compositions and methods for treatment of staphylococcal infection while suppressing formation of antibiotic-resistant strains” (priority 1999, dated 2012)
